melting point [°C]	Structure (SMILES)
197	CCOP(=O)(Cn1c(=O)c(=O)[nH]c2cc([N+](=O)[O-])ccc21)OCC
223	O=C(Nc1ccccc1S(=O)(=O)N1CCCCC1)N[C@@H](Cc1ccc(NC(=O)c2c(Cl)cncc2Cl)cc1)C(=O)O
136 to 138	COc1ccc(F)c2c1OC(CN1CC(C)(C)Cn3c1nc(-c1ccncn1)cc3=O)CC2 (racemic)
139 to 140	CCCCC1Oc2cc(C(=O)OC)ccc2NC1=O (stereo unspecified)
95 to 96	CCCc1nn(-c2ccc(C(F)(F)F)cc2)cc1CCCOc1c(CC(=O)O)cccc1OC
133 to 135	CC(C)Nc1nc2ccccc2n2cnnc12
166 to 167	O=C(C=Cc1cccc(-c2ccc(F)cc2)c1)Nc1ccc(CN2CCCCC2)cc1
144 to 146	CC=CC=C[C@@H]1C[C@H](CC(=O)O)OC2(CCCCC2)O1 (relative stereo)
167 to 169	O=c1nc(N2CCC=C(c3ccccc3)C2)sc2ncccc12
228	Clc1nc2cc(Br)c(Br)cc2[nH]1
100 to 101	N#CCCNC(=O)c1cccc(Br)c1
174 to 177	Cc1nc(C)c(CSC(=O)c2ccccc2)c(O)c1O
86 to 87	CCOc1nc(C2CC2)nc(OCC)c1C=O
156 to 157	COc1ccc(Cn2c(Cl)nc3c(-c4ccc(Cl)o4)ncnc32)cc1
310	Nc1ccc2nc3c(c(N)c2c1)C(=O)CCC3
96 to 98	Cc1cc2c(Cl)c([N+](=O)[O-])cnc2s1
142 to 144	c1ccc(C2=NC(c3ccccc3)C3=C(N2)c2nc(-c4ccccc4)cc(-c4ccccc4)c2CC3)cc1 (stereo unspecified)
207	NC(=O)C(Nc1ncccc1[N+](=O)[O-])c1c(Cl)cccc1Cl (stereo unspecified)
134 to 137	CCCCCCSc1sc(-c2cc[nH]n2)c2c1C(=O)CC(C)(C)C2
133 to 134	CC12CCC(=O)C=C1CCC1C2=CCC2(C)C(=C(Cl)C(Cl)S(=O)c3ccccc3)CCC12 (stereo unspecified)
157 to 159	C[C@H](C#Cc1ccc(Cc2cc3ccccc3s2)s1)N(O)C(N)=O
85 to 87	CCCCOC(=O)c1ccccc1-c1ccc(Cn2c(CCC)nc(C(C)(C)O)c2C(=O)OCOC(=O)OC(C)C)cc1
228 to 234	COc1cc2ncnc(NC3=CC(=O)C(Oc4ccccc4)=CC3=O)c2cc1OC
42 to 43	C(#Cc1cccnc1)c1ccccc1

melting point [°C]	Structure (SMILES)
202 to 205	O=C(CNc1ccc2[nH]c(=O)oc2c1)N1CCC(Cc2ccc(F)cc2)CC1
88 to 89	CCCCC[C@H](CC(=O)Nc1c(F)cc(F)cc1F)c1cccc2c1OCO2
146 to 147	O=C(O)c1ccccc1Oc1ccc(F)cc1
174	CNS(=O)(=O)c1cccc(-c2cc(-c3nc(-c4ccc(C(F)(F)F)cc4)cc(C(F)(F)F)n3)ccn2)c1
71.5 to 72.5	CC1CC(=O)CCC1c1ccccc1 (stereo unspecified)
65.5 to 66.5	CCCCCCCCCCCCC#CC#CCCCCCCCC(C(N)=O)C(C)c1ccccc1 (stereo unspecified)
86 to 87	FC(F)(F)c1ccc2c(c1)ncn2-c1cccc(I)c1
139 to 140	O=C1OC(CN2CCC(O)(c3ccc(Cl)cc3)CC2)CN1c1ccccc1 (stereo unspecified)
217 to 218	O=C(CCl)Nc1ccc2c(c1NC(=O)COc1ccccc1)C(=O)c1ccccc1C2=O
97 to 100	O=[N+]([O-])c1cc(Cl)cc(CCc2ccccn2)c1O
36 to 38	CS(=O)(=O)OCCOc1ccccc1OCC(F)(F)F
112 to 113	Cc1cc(CO)cc(Cl)n1
215	O=C(O)C(=Cc1ccco1)SSC(=Cc1ccco1)C(=O)O
153 to 154	CC(C)(C)OC(=O)N1CCN(c2ccc(C(=O)CSc3ccnc4ccccc34)cc2)CC1
213 to 215	Cc1noc(C)c1Cn1cc(N2C(=O)N(Cc3cc(O[Si](C)(C)C(C)(C)C)cc(O[Si](C)(C)C(C)(C)C)c3)C(C)(C)C2=O)cn1
175	C#CCSc1nn(C(=O)NS(=O)(=O)c2c(C)csc2C(=O)OCC)c(=O)n1C
183 to 184	COc1cc(OCCN2CCOCC2)c(C=CC(=O)c2ccc(C(N)=O)cc2)cc1-c1cccs1
114 to 116	COC(=O)c1cc(Cl)ccc1N(C(C)C)S(=O)(=O)c1ccc(C)cc1
100 to 102	CCCCOC(=O)Oc1cc(-n2c(OCC)nc(C(F)(F)F)cc2=O)c(F)cc1Cl
110 to 111	CN(c1ccncc1)c1ccccc1C(=O)N1CCCCC1
76 to 78	Clc1ccc(C2Cc3cnc4[nH]ncc4c3-c3ccccc32)cc1Cl (stereo unspecified)
211 to 213	O=C(NCc1ccc(Cl)cc1)c1cn2c(CO)cc3cccc(c1=O)c32
81 to 83	O=C(O)COCc1ccccc1
213 to 215	O=C(O)CCN1CCN(c2ccccc2)CC1

melting point [°C]	Structure (SMILES)
79 to 81	COc1ccc2cc([C@H](C)C(=O)OCC(=O)N(C)CC(=O)NCCO[N+](=O)[O-])ccc2c1
67 to 73	CN=C(Cl)c1ccc([N+](=O)[O-])cc1
280	Nc1cc(-n2cc(C(=O)O)c(=O)c3cc(F)c(N4CC(N)C4)c(Cl)c32)cnc1Cl
196 to 198	COC(=O)c1c(C)nn(-c2ccccn2)c1S(N)(=O)=O
235	O=C(CN1C(=O)c2ccccc2C1=O)Nc1cccc(C(F)(F)F)c1
130 to 133	O=C(O)Cc1ccc(O)c(OCc2ccccc2)c1
225 to 226	O=CNCC1CC2C3CC4C2C4C13 (stereo unspecified)
120 to 122	CNC(=O)C(C)Oc1ncn(-c2cccc(Cl)c2)n1 (stereo unspecified)
136 to 137	COc1ccc(-c2ccccc2-c2ccc(S(C)(=O)=O)cc2)cc1F
282 to 283	Cc1nc2c(c3c1[nH]c1ccccc13)C(=NO)CC(C)C2 (stereo unspecified)
101	COc1ccc(OC)c(C(=O)/C=C/c2ccc3c(c2)OCO3)c1
189 to 190	COCCNC(=O)Cc1c(-c2ccc(C)cc2)nc2[nH]c3ccccc3n12
160 to 162	O=C(O)c1ccc(OCCCCCCc2ccc3cc(O)c(O)cc3c2)cc1
248 to 251	COc1cc(OC)c(NC(=O)[C@H]2[C@H](c3ccc(S(N)(=O)=O)cc3)C2(C)C)cc1Cl (relative stereo)
103 to 105	Cn1nc(C(F)(F)F)c(C(=O)CC#N)c1Cl
124 to 127	O=C(C[C@@H](CCCC1CCCCC1)c1nc(CNC2CCCC2)co1)NO
140 to 142	COc1cc(Nc2c(C#N)cnc3cc(C#CCCN4CCOCC4)c(OC)cc23)c(Cl)cc1Cl
112	CCCCCCCCCCCCCCCCNc1ccc(C(=O)OCC(O)CO)cc1 (stereo unspecified)
142 to 143	CC(=O)Nc1c(C)c2c(c(C)c1N(C)C)OC(C)(C)C2
71 to 83	CN(C)Cc1cccc(C(F)(F)C(F)(F)c2ccccc2)c1CN
166 to 170	CC(=O)N[C@@H](CC(=O)c1ccc2oc3ccccc3c2c1)C(=O)O
160	CCCN(C)C(=O)COC1c2ccccc2C(=O)N1c1ccc2ccc(OC)nc2n1 (stereo unspecified)
126	O=C(NCCCCC1CCSS1)n1cc(F)c(=O)[nH]c1=O (stereo unspecified)
125 to 127	CNC(=NS(=O)(=O)c1ccc(C)cc1)Nc1cc(C(C)c2ccc(-c3ccccc3)c(F)c2)on1 (stereo unspecified)

melting point [°C]	Structure (SMILES)
130	O=c1ccc(CO)c[nH]1
203 to 207	CCOc1cc2c(Nc3ccc(Sc4nccn4C)c(Cl)c3)c(C#N)cnc2cc1N1CCC(N2CCCC2)CC1
175	Nc1nc2cc(N)c(OC(F)(F)F)cc2s1
72 to 72.5	COC(=O)CCCCCCCCCCCCCCCCCCCCC(=O)c1c(C)cc(OC)c(OC)c1O
135 to 137	CC(O)Cc1cc2c(cc1C(=NNc1ccc(Cl)nn1)c1ccc([N+](=O)[O-])cc1)OCO2 (stereo unspecified)
> 310	O=C1Cc2cc(C3=NNC(=O)SC3)ccc2N1
292 to 296	O=C(Cc1cccc(Br)c1)Nc1ccc(Sc2c(O)c3c(Cl)cc(Cl)cc3[nH]c2=O)cc1
154 to 155	COc1ccc(-c2nnn(-c3ccc(C(F)(F)F)cc3F)c2C)cc1
89 to 91	CC(C)(C)[Si](C)(C)OC(CCCNCCc1ccccc1)COc1ccc2c(=O)cc(-c3ccccc3)oc2c1 (stereo unspecified)
69.5	C=C(CC(=O)Nc1cc(Cl)cc(Cl)c1)C(=O)OCCCC
> 220	C=Cc1cc2c(c3ccc(O)cc13)OCc1cc(O)ccc1-2
274 to 275	Cc1cc2c(cc1C13CC1CCC3=Cc1ccc(C(=O)O)cc1)C(C)(C)CCC2(C)C (stereo unspecified)
210 to 211	C[Si](C)(C)c1cccc2c1S(=O)c1c(cccc1[Si](C)(C)C)S2
196 to 197	NC(=O)c1sc2ccc(C(F)(F)F)cc2c1O
127	CC(=O)OC1CSC(Oc2cncc(-c3cnoc3C)c2)C(OC(C)=O)C1OC(C)=O (stereo unspecified)
90 to 92	O=C(CCc1ccccc1)NCCCn1ccnc1
124 to 125	CON=C1CCCc2cc(C(=O)OC)c(C)nc21
117 to 119	CCC(CC)Nc1cc(C)nc(Oc2c(C)cc(C)cc2C)c1CN
214 to 222	COc1cc(OC)nc(NC(=O)NS(=O)(=O)c2ccccc2-c2nnn(C)n2)n1
78	CC1NCc2ccsc2C1c1ccccc1 (stereo unspecified)
117 to 118	CCN(CC)C(=O)c1cc(OC)cc(OC)c1-c1ccccc1
72 to 73	C=Cc1cnc(C)c(OC(C)=O)c1CSC(C)=O
> 250	CCN(CC)c1ccc2nc(C)c(C#N)c(O)c2c1
249 to 253	CCOc1ccc(C(=O)N2CCc3cc(S(=O)(=O)n4cc(-c5ccccc5)[nH]c4=O)ccc32)cc1

Structure (SMILES)	melting point [°C]
COCOc1c(-c2ccc(C(=O)O)cc2)cccc1-c1ccc2c(c1)C(C)(C)CCC2(C)C	74
NCCc1c[nH]c2ccc3c(=O)n(CC4CCCCO4)ccc3c12 (stereo unspecified)	260 to 262
CCN1CN2C(=N1)C(c1ccccc1Cl)=NCC1=C2S(=O)CC1 (stereo unspecified)	199 to 200
COC(=O)c1c(C(F)F)nc(C(F)(F)F)c(-n2cccc2)c1C1CCC1	70 to 71
CC1(C)CCC(C)(C)c2cc(-c3ccc(O)cc3)ccc21	137 to 140
